Data on six compounds can be found in article PMC6538516 (Journal of Veterinary Science, 2019).

For data set [1] the following is noted: humans; ref 14 (Wijnands et al.); cited from earlier work.
A further data set relates to CYP1A. Particulars: hepatic microsomes from Beagles; ref 13 (Regmi et al.); cited from earlier work.
Data set [2] can be described thus: Pharmacokinetics of p-acetaminophen in Bactrian camels, substrate only. Particulars: Group 1, substrate only, 4 mg/kg intramuscular. The class given is in vivo, Bactrian camel.
In the next data set the test system is CYP1A enzyme. The class given is in vivo, Bactrian camel. Particulars: Group 2, inhibitor (lomefloxacin) + substrate; p-acetaminophen 4 mg/kg intramuscular.
The conditions of data set [3]: p-acetaminophen injected into porcine animals; ref 7 (Qiu et al.); cited from earlier work.
For data set [4] the following is noted: healthy cattle, oral administration; ref 8 (Sawaguchi et al.); cited from earlier work.
For data set [5] the following is noted: rats, intramuscular injection; ref 9 (Yamasaki et al.); cited from earlier work.

Structures are written as SMILES. Like-named read-outs stand apart in the source and are kept apart here.

Regarding `CCn1cc(C(=O)O)c(=O)c2cc(F)c(N3CCNCC3)nc21` [enoxacin], the “effect on total body clearance of theophylline” value in data set [1] was “significantly decreased”.

Regarding `CCN1CCN(c2cc3c(cc2F)c(=O)c(C(=O)O)cn3C2CC2)CC1` [enrofloxacin], the CYP1A-inhibiting effect entry with CYP1A is “inhibited CYP1A in a non-competitive manner”.

With `CCn1cc(C(=O)O)c(=O)c2cc(F)c(N3CCNCC3)cc21` [norfloxacin], the CYP1A-inhibiting effect result with CYP1A is on record as “inhibited CYP1A in a non-competitive manner”.

Turning to `CC1COc2c(N3CCN(C)CC3)c(F)cc3c(=O)c(C(=O)O)cn1c23` (centres unmarked) [ofloxacin], the CYP1A-inhibiting effect result in the data set on CYP1A is on record as “inhibited CYP1A in a non-competitive manner”.

As for `C[C@@H]1CN(c2c(F)c(F)c3c(=O)c(C(=O)O)cn(C4CC4)c3c2F)C[C@H](C)N1` [orbifloxacin], the CYP1A-inhibiting effect result in the data set on CYP1A is “inhibited CYP1A in a non-competitive manner”.

Consider `CC(=O)Nc1ccc(O)cc1` [p-acetaminophen], for which the “Vd (volume of distribution under steady-state)” value in data set [2] was 4,416.8 ± 138.23 mL/kg. Further, in data set [2] (plasma), the AUC0-t was determined as 5730 ± 310 ng·h/mL, the “AUC0-∞” value was determined as 6010 ± 630 ng·h/mL, the Cmax was found to be 960 ± 430 ng/mL and the time to peak (Tmax) is on record as 1.70 ± 0.51 h. Moreover, in the data set with CYP1A enzyme, the AUC0-t turned out to be 8880 ± 230 ng·h/mL, the “AUC0-∞” value was determined as 9150 ± 630 ng·h/mL, the Cmax came to 1220 ± 660 ng/mL and the Tmax came to 0.833 ± 0.37 h. For the same compound, the “Vd (volume of distribution under steady-state)” value in the data set with CYP1A enzyme is given as 3,934.0 ± 90.03 mL/kg. Further, in data set [3], the AUC0-t is 23950 ± 6980 ng·h/mL, the T1/2 was 1.76 ± 0.91 h and the Tmax is 0.41 ± 0.13 h. In addition, in data set [4], the MRT is listed as 4.70 ± 0.93 h, the T1/2 was 2.41 ± 0.58 h and the Tmax is given as 1.40 ± 0.55 h. In addition, in data set [5], the MRT was 0.40 ± 0.03 h and the T1/2 is on record as 0.30 ± 0.02 h.
